The text below walks through data of ChEMBL document CHEMBL4411262, “Ulleungdin, a Lasso Peptide with Cancer Cell Migration Inhibitory Activity Discovered by the Genome Mining Approach” (J Nat Prod, 2018).

The source made the active and inactive calls. The calls are words filed in the database; no cut-off is given here. Where a SMILES comes first, the peptide text is derived from it. Bridges are numbered along the chain shown (N, C = ends).

The test system of series [1] is A549. The experiment in a line: Antiinvasive activity against human A549 cells assessed as inhibition of cell invasion at 50 uM after 24 hrs by crystal violet staining based transwell assay relative to control. Format: functional. The conditions noted are these: A549, 24 h.
Series [2] relates to A549. The experiment in a line: Cytotoxicity against human A549 cells assessed as effect on cell viability up to 100 uM after 24 hrs by EZ-Cytox cell viability assay. Format: cell-based. The note with it: a549, 24 h.
Series [3] has as its system A549. The experiment in a line: Antimigratory activity against human A549 cells assessed as reduction in cell migration measured at 15 mins interval for 12 hrs by Holomonitor M4 time-lapse cytometric method. Type of series: functional, cell-based.
Series [4] deals with A549. The experiment in a line: Antimigratory activity against human A549 cells assessed as reduction in cell motility measured at 15 mins interval for 12 hrs by Holomonitor M4 time-lapse cytometric method. Type of series: functional, cell-based.
The subject of series [5] is A549. The series is described as follows: Effect on ERK expression in human A549 cells up to 50 uM after 24 hrs by Western blot analysis. Type of series: functional, cell-based. A general note: A western blot detects proteins with antibodies after separation by electrophoresis.
Series [6] deals with A549. The series is described as follows: Effect on JNK expression in human A549 cells up to 50 uM after 24 hrs by Western blot analysis. Type of series: functional, cell-based.
Series [7] deals with A549. The series is described as follows: Effect on p38 expression in human A549 cells up to 50 uM after 24 hrs by Western blot analysis. Type of series: functional, cell-based.
The test system of series [8] is A549. The series is described as follows: Effect on FAK expression in human A549 cells up to 50 uM after 24 hrs by Western blot analysis. Format: functional, cell-based.
For series [9], the system named is A549. The experiment in a line: Effect on paxillin expression in human A549 cells up to 50 uM after 24 hrs by Western blot analysis. Format: functional, cell-based.
For series [10], the system named is A549. The series is described as follows: Effect on MMP9 expression in human A549 cells up to 50 uM after 24 hrs by Western blot analysis. Format: functional, cell-based.
Series [11] has as its system A549. The experiment in a line: Effect on MMP2 expression in human A549 cells up to 50 uM after 24 hrs by Western blot analysis. Format: functional, cell-based.
Series [12] deals with A549. The series is described as follows: Effect on ERK phosphorylation in human A549 cells up to 50 uM after 24 hrs by Western blot analysis. Type of series: cell-based.
In series [13] the target is c-Jun N-terminal kinase, JNK (Homo sapiens) (UniProt P45983+P53779+P45984). The series is described as follows: Effect on JNK phosphorylation in human A549 cells up to 50 uM after 24 hrs by Western blot analysis. Format: cell-based.
For series [14], the target named is MAP kinase p38 (Homo sapiens) (UniProt O15264+Q15759+Q16539+P53778). The experiment in a line: Effect on p38 phosphorylation in human A549 cells up to 50 uM after 24 hrs by Western blot analysis. Type of series: cell-based.
For series [15], the target named is Focal adhesion kinase 1 (Homo sapiens) (UniProt Q05397). The series is described as follows: Effect on FAK phosphorylation in human A549 cells up to 50 uM after 24 hrs by Western blot analysis. Format: cell-based.
Focal adhesion kinase 1 (Homo sapiens), sequence (Q05397 2-1052 limits assumed): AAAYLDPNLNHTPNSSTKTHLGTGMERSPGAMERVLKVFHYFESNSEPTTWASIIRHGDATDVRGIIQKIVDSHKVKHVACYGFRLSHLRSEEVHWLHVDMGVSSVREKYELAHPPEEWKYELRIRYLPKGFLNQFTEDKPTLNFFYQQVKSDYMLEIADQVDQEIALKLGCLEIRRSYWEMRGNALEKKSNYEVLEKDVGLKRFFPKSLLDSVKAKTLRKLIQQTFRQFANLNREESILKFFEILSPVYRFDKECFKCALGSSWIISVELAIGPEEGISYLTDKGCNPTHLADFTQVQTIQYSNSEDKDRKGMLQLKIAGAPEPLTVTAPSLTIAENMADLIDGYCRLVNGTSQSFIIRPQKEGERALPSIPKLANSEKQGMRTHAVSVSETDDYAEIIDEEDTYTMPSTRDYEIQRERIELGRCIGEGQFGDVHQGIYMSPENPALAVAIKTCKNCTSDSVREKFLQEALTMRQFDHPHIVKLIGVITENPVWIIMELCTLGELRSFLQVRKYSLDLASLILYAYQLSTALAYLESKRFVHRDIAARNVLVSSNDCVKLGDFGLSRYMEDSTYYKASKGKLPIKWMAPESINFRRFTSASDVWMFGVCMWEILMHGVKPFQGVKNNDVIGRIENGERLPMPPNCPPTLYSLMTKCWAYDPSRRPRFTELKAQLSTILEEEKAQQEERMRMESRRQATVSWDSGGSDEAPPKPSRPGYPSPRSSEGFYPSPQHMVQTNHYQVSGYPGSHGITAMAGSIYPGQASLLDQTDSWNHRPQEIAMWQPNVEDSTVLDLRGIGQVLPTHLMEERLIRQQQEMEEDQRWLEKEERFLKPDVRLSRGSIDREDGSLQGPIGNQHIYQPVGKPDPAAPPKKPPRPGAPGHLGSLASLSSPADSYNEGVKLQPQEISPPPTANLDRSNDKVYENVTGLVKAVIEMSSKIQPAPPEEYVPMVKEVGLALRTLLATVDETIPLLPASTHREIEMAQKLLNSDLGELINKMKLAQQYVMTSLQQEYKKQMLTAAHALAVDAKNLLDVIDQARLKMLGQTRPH
In a further series the target is Paxillin (Homo sapiens) (UniProt P49023). The experiment in a line: Effect on paxillin phosphorylation in human A549 cells up to 50 uM after 24 hrs by Western blot analysis. Type of series: cell-based.
Paxillin (Homo sapiens), sequence (P49023 whole entry): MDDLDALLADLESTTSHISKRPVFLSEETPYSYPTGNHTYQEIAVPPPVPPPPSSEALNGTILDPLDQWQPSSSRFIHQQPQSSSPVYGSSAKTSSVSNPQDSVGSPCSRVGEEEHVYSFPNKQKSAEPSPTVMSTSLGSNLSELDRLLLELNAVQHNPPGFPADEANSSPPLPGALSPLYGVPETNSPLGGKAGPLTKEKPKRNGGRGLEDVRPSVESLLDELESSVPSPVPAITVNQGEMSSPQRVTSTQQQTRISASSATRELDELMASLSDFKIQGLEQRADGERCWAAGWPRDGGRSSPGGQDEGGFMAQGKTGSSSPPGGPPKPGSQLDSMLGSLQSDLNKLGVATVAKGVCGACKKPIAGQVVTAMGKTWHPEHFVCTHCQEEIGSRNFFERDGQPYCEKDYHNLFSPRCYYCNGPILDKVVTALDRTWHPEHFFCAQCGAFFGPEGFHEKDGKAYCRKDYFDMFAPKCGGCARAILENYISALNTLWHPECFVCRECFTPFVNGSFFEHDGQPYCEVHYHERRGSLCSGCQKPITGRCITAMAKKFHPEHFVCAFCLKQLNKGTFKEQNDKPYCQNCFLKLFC
Series [16] has as its target Matrix metalloproteinase-9 (Homo sapiens) (UniProt P14780). The series is described as follows: Effect on MMP9 phosphorylation in human A549 cells up to 50 uM after 24 hrs by Western blot analysis. Type of series: cell-based.
Series [17] addresses 72 kDa type IV collagenase (Homo sapiens) (UniProt P08253). The experiment in a line: Effect on MMP2 phosphorylation in human A549 cells up to 50 uM after 24 hrs by Western blot analysis. Format: cell-based.

72 kDa type IV collagenase (Homo sapiens), sequence (P08253 110-660 limits assumed): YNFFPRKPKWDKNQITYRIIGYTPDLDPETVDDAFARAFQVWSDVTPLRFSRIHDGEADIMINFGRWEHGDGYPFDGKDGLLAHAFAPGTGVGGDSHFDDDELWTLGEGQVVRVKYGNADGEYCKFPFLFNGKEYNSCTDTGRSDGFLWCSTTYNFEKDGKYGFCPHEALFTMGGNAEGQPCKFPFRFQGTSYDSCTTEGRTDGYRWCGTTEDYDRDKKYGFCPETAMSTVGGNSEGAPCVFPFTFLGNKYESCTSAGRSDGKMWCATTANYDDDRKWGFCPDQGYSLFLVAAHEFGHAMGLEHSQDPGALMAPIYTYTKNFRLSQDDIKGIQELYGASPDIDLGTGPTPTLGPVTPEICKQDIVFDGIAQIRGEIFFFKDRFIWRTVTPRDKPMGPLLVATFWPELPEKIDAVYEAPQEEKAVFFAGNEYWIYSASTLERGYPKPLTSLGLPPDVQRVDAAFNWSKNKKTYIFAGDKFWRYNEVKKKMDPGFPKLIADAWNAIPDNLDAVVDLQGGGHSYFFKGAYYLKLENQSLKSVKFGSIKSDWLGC
Matrix metalloproteinase-9 (Homo sapiens), sequence (P14780 whole entry): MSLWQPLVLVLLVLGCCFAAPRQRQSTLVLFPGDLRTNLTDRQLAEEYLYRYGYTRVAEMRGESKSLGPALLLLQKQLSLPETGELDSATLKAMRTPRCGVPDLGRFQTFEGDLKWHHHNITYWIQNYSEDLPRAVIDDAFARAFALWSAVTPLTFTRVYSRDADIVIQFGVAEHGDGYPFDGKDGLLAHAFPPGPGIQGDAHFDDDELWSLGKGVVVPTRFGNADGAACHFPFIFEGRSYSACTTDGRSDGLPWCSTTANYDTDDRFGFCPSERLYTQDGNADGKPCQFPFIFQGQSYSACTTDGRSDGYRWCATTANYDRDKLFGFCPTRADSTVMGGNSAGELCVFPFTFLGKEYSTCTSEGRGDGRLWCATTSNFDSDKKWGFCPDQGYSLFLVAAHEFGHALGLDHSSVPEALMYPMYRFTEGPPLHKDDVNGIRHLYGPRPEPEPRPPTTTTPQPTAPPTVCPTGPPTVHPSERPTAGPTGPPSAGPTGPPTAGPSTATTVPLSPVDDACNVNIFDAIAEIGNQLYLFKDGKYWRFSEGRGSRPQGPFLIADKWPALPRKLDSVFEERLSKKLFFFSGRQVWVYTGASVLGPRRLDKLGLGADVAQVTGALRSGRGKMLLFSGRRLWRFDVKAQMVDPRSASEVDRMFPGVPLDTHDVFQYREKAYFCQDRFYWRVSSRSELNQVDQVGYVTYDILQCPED

Take `CC[C@H](C)[C@@H]1NC(=O)[C@@H]2CCCN2C(=O)[C@H](CCCCN)NC(=O)[C@H](CO)NC(=O)CNC(=O)[C@H](Cc2ccccc2)NC(=O)CNC(=O)C[C@@H](C(=O)N[C@@H](CO)C(=O)N[C@@H](Cc2ccccc2)C(=O)NCC(=O)N[C@@H](CC(C)C)C(=O)N[C@@H](CO)C(=O)N[C@@H](Cc2c[nH]c3ccccc23)C(=O)N[C@@H](CC(C)C)C(=O)O)NC1=O` [SUNGSANPIN] (GFGSKPIDSFGLSWL-OH; lactam N-8): the inhibition at 50 µM in the series on A549 [1] came out at 53%.
Regarding `CC(C)C[C@H](NC(=O)CNC(=O)[C@H](Cc1ccccc1)NC(=O)[C@H](CO)NC(=O)[C@@H]1CC(=O)NCC(=O)N[C@@H](Cc2ccccc2)C(=O)NCC(=O)N[C@@H](CO)C(=O)N[C@@H](CCCCN)C(=O)N2CCC[C@H]2C(=O)N[C@@H](CC(C)C)C(=O)N1)C(=O)N[C@@H](CC(N)=O)C(=O)N[C@@H](Cc1ccccc1)C(=O)N[C@@H](Cc1ccccc1)C(=O)O` (GFGSKPLDSFGLNFF-OH; lactam N-8), the inhibition at 50 µM with A549 [1] stood at 56%.
Consider `CC[C@H](C)[C@@H]1NC(=O)[C@H](Cc2ccccc2)NC(=O)CNC(=O)C[C@@H](C(=O)N[C@H](C(=O)N[C@@H](Cc2ccccc2)C(=O)NCC(=O)N[C@@H](Cc2cnc[nH]2)C(=O)N[C@@H](Cc2ccc(O)cc2)C(=O)NCC(=O)NCC(=O)O)[C@@H](C)CC)NC(=O)[C@H](CCCCN)NC(=O)CNC(=O)[C@H](Cc2c[nH]c3ccccc23)NC(=O)CNC1=O` (GFIGWGKDIFGHYGG-OH; lactam N-8), for which the Activity result was “Non-Toxic” in the series on A549 [2], “Dose-dependent effect” with A549 [3] and “Dose-dependent effect” in the series with A549 [4]. Further, the inhibition at 50 µM in the series on A549 [1] was found to be 48.4%. For the same compound, the result in the series with A549 [5], with A549 [6], with A549 [7], with A549 [8], with A549 [9] and in the series on A549 [10] was inactive. Further, the outcome (with A549 [11]; in the series with A549 [12]; in [13]; in [14]; in series [15]; on Paxillin (Homo sapiens)) was inactive. The outcome in [16] and in series [17] was inactive.

By inhibition is commonly meant the relative decrease from the control value, in per cent.
